In publication PMC9511493, “2-(Fluoromethoxy)-4′-(S-methanesulfonimidoyl)-1,1′-biphenyl (UCM-1306), an Orally Bioavailable Positive Allosteric Modulator of the Human Dopamine D1 Receptor for Parkinson’s Disease” (Journal of Medicinal Chemistry, 2022):
Several values for one entry are separate records, joined by “and”; a condition that tells them apart may be missing. Equal values may be shown once.

Columns and labels:
[1] = target: T1, human D2R (Homo sapiens, UniProt P14416); test: functional cAMP assay at recombinant human D2R in CHO cells; format: cell-based; conditions: 10 μM compound
T1 construct: expressed in transfected cells; host or cells: in-house CHO cell line
Procedure: Functional studies at human D1 and D2 receptors were carried out in endogenously expressed human D1R in the SK-N-MC cell line (ATCC), and recombinant human D2R stably transfected in an in-house CHO cell line. Cells were thawed and seeded into a black 96-well plate (1 × 10^4 cells/well for SK-N-MC cell line, 5 × 10^3 cells/well for CHO cell line) in Opti-MEM containing 500 μM IBMX (3-isobutyl-1-methylxanthine). Test compounds were added to the cells and incubated for 15 min at 25 °C for D1R, and for 5 min at 37 °C for D2R. After this time, dopamine was added to the corresponding wells and incubated for additional 15 min at 25 °C for D1R, and 10 min at 37 °C for D2R. Next, treated cells were lysed (for the D2R assay, cells were previously treated with 10 μM forskolin for 5 min at 37 °C) and the cAMP concentration was measured by HTRF, using a kit from Cisbio. HTRF was read in a Tecan M1000 Genius Pro reader (λexcitation = 320 nm, λemission = 620 and 665 nm, 30 flashes), and data were normalized to the dopamine maximum effect and fitted to a 4-parameter logistic equation by using Prism v2.1 software (GraphPad Inc).

[2] = target: T2, human D3R (Homo sapiens, UniProt P35462); test: PatHunter beta-arrestin assay at human D3R; format: cell-based; conditions: 10 μM compound
T2 construct: host or cells: cells supplied with the PatHunter Beta-arrestin eXpress GPCR assay kit
Procedure: Functional studies at both human D3 and D4 receptors were carried out in human D3 and D4 receptors, using a PatHunter Beta-arrestin eXpress GPCR assay kit from DiscoverX. Briefly, cells were plated and maintained for 48 h at 37 °C in a 5% CO2 atmosphere in cell plating reagent provided in the kit. After this time, test compounds were added to the cells and incubated for 30 min at 37 °C. Dopamine was added to the cells and incubated for an additional 90 min at 37 °C. Cells were then treated with the working detection solution provided with the kit for 1 h and beta-arrestin translocation was measured by luminescence detection (integration time = 500 ms) in a Tecan M1000 Genius Pro reader. Data were normalized to dopamine maximum effect and fitted to a 4-parameter logistic equation using Prism v2.1 software (GraphPad Inc).

[3] = target: T3, CYP2D6 (Homo sapiens, UniProt P10635); test: cytochrome inhibition, fluorescence assay, CYP2D6; format: in vitro ADME
T3 construct: host or cells: insect cell microsomes
Procedure: (§1) Cytochrome inhibition. The objective of this study was to screen the potential of test […]
(§2) performed using recombinant isoforms CYP1A2, CYP2C9, CYP2C19, CYP2D6, and CYP3A4, and probe substrates with fluorescent detection.
(§3) Assays were conducted in a 200 µL volume in 96-well microtiter plates (COSTAR 3915).
(§4) Addition of cofactor-buffer mixture (KH2PO4 buffer, 1.3 mM NADP, 3.3 mM MgCl2, 3.3 mM glucose -6- phosphate, and 0.4 U/mL glucose -6- phosphate dehydrogenase), supersomes control, standard inhibitors (furafyline, tranylzypromine, ketoconazole, sulfaphenazole, and quinidine from Sigma Aldrich) and test compound to the plate was carried out by a liquid handling station (Zephyr Caliper). The plate was then pre-incubated at 37 °C for 5 min, and the reaction was initiated by the addition of the pr e - warmed enzyme/substrate (E/S) mix. […]
(§5) Fluorescence per well was measured using a fluorescence plate reader (Tecan Infinite M1000 pro) and percentage of inhibition was calculated. hERG ion channel inhibition. […]

[4] = target: T4, CYP3A4 (Homo sapiens, UniProt P08684); test: cytochrome inhibition, fluorescence assay, CYP3A4; format: in vitro ADME
T4 construct: host or cells: insect cell microsomes
Procedure: as §1, §2, §3, §4, §5

[5] = target: T5, CYP1A2 (Homo sapiens, UniProt P05177); test: cytochrome inhibition, fluorescence assay, CYP1A2; format: in vitro ADME
T5 construct: host or cells: insect cell microsomes
T5 sequence (P05177 1-516): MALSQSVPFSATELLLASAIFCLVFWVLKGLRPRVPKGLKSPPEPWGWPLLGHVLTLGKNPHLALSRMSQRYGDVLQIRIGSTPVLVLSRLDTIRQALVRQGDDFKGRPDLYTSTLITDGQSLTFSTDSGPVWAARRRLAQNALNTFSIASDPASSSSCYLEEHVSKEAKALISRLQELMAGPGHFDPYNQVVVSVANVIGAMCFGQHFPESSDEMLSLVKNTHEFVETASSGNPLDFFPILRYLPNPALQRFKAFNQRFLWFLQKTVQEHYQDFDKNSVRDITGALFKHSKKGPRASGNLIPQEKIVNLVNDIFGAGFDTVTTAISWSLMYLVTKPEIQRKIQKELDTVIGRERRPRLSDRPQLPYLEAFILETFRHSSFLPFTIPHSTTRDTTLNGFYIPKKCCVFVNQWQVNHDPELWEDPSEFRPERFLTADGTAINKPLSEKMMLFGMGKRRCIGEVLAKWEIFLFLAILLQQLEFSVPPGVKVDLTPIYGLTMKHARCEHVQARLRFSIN
Procedure: as §1, §2, §3, §4, §5

[6] = target: T6, CYP2C9 (Homo sapiens, UniProt P11712); test: cytochrome inhibition, fluorescence assay, CYP2C9; format: in vitro ADME
T6 construct: host or cells: insect cell microsomes
Procedure: as §1, §2, §3, §4, §5

[7] = percentage of inhibition at 10 μM
[8] = Table S1, concentration not given

T4 sequence (P08684 whole entry): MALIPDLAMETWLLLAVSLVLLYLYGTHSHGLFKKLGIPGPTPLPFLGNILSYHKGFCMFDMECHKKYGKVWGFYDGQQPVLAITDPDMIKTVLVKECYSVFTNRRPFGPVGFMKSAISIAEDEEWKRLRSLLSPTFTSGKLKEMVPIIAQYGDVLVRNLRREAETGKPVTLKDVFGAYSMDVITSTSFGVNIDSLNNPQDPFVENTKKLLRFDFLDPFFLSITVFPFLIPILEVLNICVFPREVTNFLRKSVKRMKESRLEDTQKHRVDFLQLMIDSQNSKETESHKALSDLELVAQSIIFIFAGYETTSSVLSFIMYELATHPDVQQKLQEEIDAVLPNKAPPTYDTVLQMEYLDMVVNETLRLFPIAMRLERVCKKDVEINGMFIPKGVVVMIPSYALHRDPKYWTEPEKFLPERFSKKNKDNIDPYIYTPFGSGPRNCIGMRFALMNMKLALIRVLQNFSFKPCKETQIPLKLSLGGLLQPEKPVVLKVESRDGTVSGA
T3 sequence (P10635 whole entry): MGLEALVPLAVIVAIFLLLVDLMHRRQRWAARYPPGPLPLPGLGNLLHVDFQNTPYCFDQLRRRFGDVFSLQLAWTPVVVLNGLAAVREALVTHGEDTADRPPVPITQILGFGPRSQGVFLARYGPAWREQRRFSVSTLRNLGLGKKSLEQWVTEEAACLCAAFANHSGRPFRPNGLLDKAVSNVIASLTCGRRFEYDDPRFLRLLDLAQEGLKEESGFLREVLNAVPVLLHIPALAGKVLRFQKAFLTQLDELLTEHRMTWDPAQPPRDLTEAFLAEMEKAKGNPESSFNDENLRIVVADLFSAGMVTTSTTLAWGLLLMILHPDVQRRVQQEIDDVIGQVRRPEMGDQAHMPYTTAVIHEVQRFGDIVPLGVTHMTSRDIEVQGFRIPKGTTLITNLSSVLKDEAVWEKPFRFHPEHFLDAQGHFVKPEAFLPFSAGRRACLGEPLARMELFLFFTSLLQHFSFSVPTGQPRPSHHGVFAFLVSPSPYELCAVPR
T2 sequence (P35462 whole entry): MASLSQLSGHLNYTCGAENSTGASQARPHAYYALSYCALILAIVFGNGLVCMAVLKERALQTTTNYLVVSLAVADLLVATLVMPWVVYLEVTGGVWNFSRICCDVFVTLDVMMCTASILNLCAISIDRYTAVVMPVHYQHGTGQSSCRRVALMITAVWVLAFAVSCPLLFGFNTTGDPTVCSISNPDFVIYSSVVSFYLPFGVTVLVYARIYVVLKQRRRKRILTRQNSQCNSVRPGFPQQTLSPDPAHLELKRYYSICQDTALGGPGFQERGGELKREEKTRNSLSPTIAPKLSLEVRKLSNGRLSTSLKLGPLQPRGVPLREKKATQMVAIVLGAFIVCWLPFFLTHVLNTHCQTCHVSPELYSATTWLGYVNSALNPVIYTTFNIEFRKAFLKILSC
T1 sequence (P14416 whole entry): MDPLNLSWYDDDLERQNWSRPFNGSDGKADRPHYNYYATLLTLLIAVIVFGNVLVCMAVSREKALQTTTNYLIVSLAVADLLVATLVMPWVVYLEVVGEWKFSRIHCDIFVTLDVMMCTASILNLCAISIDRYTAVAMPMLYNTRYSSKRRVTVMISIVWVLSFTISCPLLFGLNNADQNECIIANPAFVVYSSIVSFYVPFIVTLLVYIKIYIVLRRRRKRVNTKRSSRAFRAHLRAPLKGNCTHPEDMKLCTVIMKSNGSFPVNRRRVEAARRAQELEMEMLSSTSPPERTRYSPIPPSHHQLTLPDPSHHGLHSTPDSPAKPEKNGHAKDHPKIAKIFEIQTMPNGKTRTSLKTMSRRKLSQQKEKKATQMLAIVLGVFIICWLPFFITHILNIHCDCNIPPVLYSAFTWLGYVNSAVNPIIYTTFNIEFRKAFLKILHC
T6 sequence (P11712 whole entry): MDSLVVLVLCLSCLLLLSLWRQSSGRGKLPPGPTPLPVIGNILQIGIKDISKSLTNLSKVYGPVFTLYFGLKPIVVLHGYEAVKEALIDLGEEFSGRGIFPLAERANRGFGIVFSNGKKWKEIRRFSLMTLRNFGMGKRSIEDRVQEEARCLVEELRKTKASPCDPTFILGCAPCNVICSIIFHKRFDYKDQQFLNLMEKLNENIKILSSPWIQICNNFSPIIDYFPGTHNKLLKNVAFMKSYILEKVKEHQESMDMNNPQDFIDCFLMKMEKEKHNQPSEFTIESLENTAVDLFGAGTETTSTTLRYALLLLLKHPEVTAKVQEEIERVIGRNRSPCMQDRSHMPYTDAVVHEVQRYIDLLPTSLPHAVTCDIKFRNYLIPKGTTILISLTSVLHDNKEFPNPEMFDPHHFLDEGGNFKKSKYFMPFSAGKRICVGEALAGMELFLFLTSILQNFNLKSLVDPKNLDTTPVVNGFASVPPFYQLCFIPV

CS(=N)(=O)c1ccc(-c2ccccc2OCF)cc1 (stereo not drawn) [Compound 26, 2-(Fluoromethoxy)-4′-(S-methanesulfonimidoyl)-1,1′-biphenyl]
enhancement of DA Emax at human D2 receptor [1]: subtype selectivity | enhancement of DA Emax at human D3 receptor [2]: subtype selectivity | CYP2D6 (%) [3, 7]: 3% and 3 ± 1% | CYP34A (%) [4, 7]: 9% and 9 ± 1% | CYP1A2 (%) [5, 7]: 49 ± 2% | CYP2C9 (%) [6, 7]: 38 ± 3%

O=Cc1ccc(-c2ccccc2OCF)cc1 [Compound 3, 2′-(Fluoromethoxy)[1,1′-biphenyl]-4-carbaldehyde]
enhancement of DA Emax at human D2 receptor [1]: did not enhance DA Emax | enhancement of DA Emax at human D3 receptor [2]: did not enhance DA Emax | CYP2D6 (%) [3, 8]: inactive | IC50 ([4]; read-out: CYP34A (IC50)): 2820 ± 320 nM | IC50 [5]: 830 ± 170 nM | CYP2C9 (%) [6, 8]: inactive
